{"source": "ChEMBL document CHEMBL4304826", "about": "“Lead identification and characterization of hTrkA type 2 inhibitors” (Bioorg Med Chem Lett, 2019)", "key": {"in vivo [1]": {"test": "in vivo", "conditions": "Beagle, dog, plasma, iv, 0.2 mg/kg"}, "in vivo [2]": {"test": "in vivo", "conditions": "Beagle, dog, plasma, iv, 0.2 mg/kg", "remark": "listed apart in the source"}, "in vivo [3]": {"test": "in vivo", "conditions": "Beagle, dog, plasma, iv, 0.2 mg/kg", "remark": "listed apart in the source"}, "in vivo [4]": {"test": "in vivo", "conditions": "Beagle, dog, plasma, iv, 0.2 mg/kg", "remark": "listed apart in the source"}, "in vivo [5]": {"test": "in vivo", "conditions": "Beagle, dog, plasma, iv, 0.2 mg/kg", "remark": "listed apart in the source"}, "in vivo [6]": {"test": "in vivo", "conditions": "Beagle, dog, plasma, po, 3 mg/kg"}, "in vivo [7]": {"test": "in vivo", "conditions": "Beagle, dog, plasma, po, 3 mg/kg", "remark": "listed apart in the source"}, "in vivo [8]": {"test": "in vivo", "conditions": "Beagle, dog, plasma, po, 3 mg/kg", "remark": "listed apart in the source"}, "in vivo [9]": {"test": "in vivo", "conditions": "Beagle, dog, plasma, po, 3 mg/kg", "remark": "listed apart in the source"}, "in vivo [10]": {"test": "in vivo", "conditions": "Beagle, dog, plasma, po, 3 mg/kg", "remark": "listed apart in the source"}, "in vivo [11]": {"test": "in vivo", "conditions": "Beagle, dog, po, 3 mg/kg"}, "in vitro [12]": {"test": "in vitro", "conditions": "dog, liver microsomes"}, "in vitro [13]": {"test": "in vitro", "conditions": "dog, MDCK"}, "in vitro [14]": {"test": "in vitro", "conditions": "dog, MDCK", "remark": "listed apart in the source"}}, "data": [{"compound": "Cc1ccc2nc(CSc3nnc(NC(=O)Nc4cccc(C(F)(F)F)c4)s3)cc(=O)n2c1", "values": [{"measurement": "half-life", "setting": "in vivo [1]", "result": 37.8, "unit": "min"}, {"measurement": "AUC(0-t)", "setting": "in vivo [2]", "result": 748, "unit": "ng·h/mL"}, {"measurement": "AUC(0-inf)", "setting": "in vivo [3]", "result": 755, "unit": "ng·h/mL"}, {"measurement": "Vd", "setting": "in vivo [4]", "result": 0.164, "unit": "L/kg"}, {"measurement": "clearance", "setting": "in vivo [5]", "result": 4.43, "unit": "mL/min/kg"}, {"measurement": "Cmax", "setting": "in vivo [6]", "result": 1140, "unit": "ng/mL"}, {"measurement": "Tmax", "setting": "in vivo [7]", "result": 45, "unit": "min"}, {"measurement": "half-life", "setting": "in vivo [8]", "result": 39, "unit": "min"}, {"measurement": "AUC(0-t)", "setting": "in vivo [9]", "result": 1780, "unit": "ng·h/mL"}, {"measurement": "AUC(0-inf)", "setting": "in vivo [10]", "result": 1790, "unit": "ng·h/mL"}, {"measurement": "bioavailability", "setting": "in vivo [11]", "result": 16, "unit": "%"}, {"measurement": "half-life", "setting": "in vitro [12]", "result": 9, "unit": "min"}, {"measurement": "Papp A→B", "setting": "in vitro [13]", "result": 0.14, "unit": "×10⁻⁶ cm/s"}, {"measurement": "Papp B→A", "setting": "in vitro [14]", "result": 3.73, "unit": "×10⁻⁶ cm/s"}]}]}
